Patent publication US20240009175A9, “TETRAZOLE DERIVATIVES” (Merck Patent GmbH, priority 2020, published 2024)

Tests used:
[1] = target: ACSS2 (Homo sapiens (Human), UniProt Q9NR19); assay: Cellular assay of 14C acetate incorporation into fatty acids (IC50 ACSS2 cellular lipids); format: cell-based; conditions: HCT-15 cells
Description: Cellular Assay of ^14C Acetate Incorporation into Fatty Acids (IC50 ACSS2 Cellular Lipids)
This protocol describes a cellular assay capable to quantify endogenous fatty acid synthesis activity in the human HCT-15 cancer cell line following the incorporation of extracellularly administered radiolabeled ^14C acetate with a scintillation proximity based read out on extracted fatty acids.
HCT-15 cells were grown in RPMI 1640 (Gibco) supplemented with 2 mM glutamine, 1 mM sodium pyruvate 10 mM HEPES and 10% FCS (heat-inactivated) passaged every 2-3 days to remain a subconfluent, vital culture. A working cell bank was prepared with each aliquot containing 1×10^7 viable cells. After thawing, these cells are dilute immediately 1:20 in pre-warmed (37° C.) culture medium. Cells are collected by centrifugation at 200×g for 5 min, and the supernatant is replaced by 30 mL of fresh culture medium per aliquot to obtain a cell suspension containing 350000 cells/ml. From this cell suspension 100 μL are dispersed into each well of a collagen coated 96 well plate, (black, clear bottom, PS, F-bottom, Greiner) and culture for 24 h (37° C., 5% CO2). After incubation the culture medium is removed and the wells are washed once with 100 μL PBS++(supplemented with Mg^2+/Ca^2+, Gibco) and 50 μL assay medium (RPMI 1640+10 mM HEPES) are added to each well. Compounds serial dilutions are prepared from 10 mM stock solutions in DMSO using a fixed dilution factor (usually 1:3). After preparation of the dilution series in DMSO, the individual dilutions are further diluted in the assay medium. This working dilution is prepared such, that the concentration is 7× of the final concentration in the assay. The maximal DMSO concentration in the final assay is 0.1%.
To each well 10 μL compound working dilution or DMSO blank are added and the cells are cultured for 2 h (37° C., 5% CO2). Then 10 μL AlamarBlue reagent (Invitrogen) containing 14 μCi/mL 14C-acetate (Perkin Elmer) are added to each well (70 μl total volume) and cells are again cultured for 2 h. Cell viability is verified by measuring the AlamarBlue fluorescence (Tecan Safire, ex: 544 nm/em: 590 nm). After incubation the culture medium is removed and the wells are carefully washed once with cold 100 μL PBS++. For cell lysis and fatty acid recovery 50 μl 0.1 M NaOH and 0.1% Triton-X100 are added per well. The plate is sealed with PlateLoc (clear peelable heat seal, Agilent) and incubate at 70° C. for 16-24 h. After cooling to room temperature, the plates are centrifuged for 1 min at 1000 rpm and the plate seals are removed. For acidification 150 μL 0.1 M HCl are added to each well, mixed and 150 μL of the mixture are transferred into a 96 well FlashPlate (Perkin Elmer). The plates are sealed with TopSeal-A (Perkin Elmer). To allow for the fatty acid binding to the well surfaces the plates are incubate for 4 h at 70° C. After cooling to room temperature, the plates are centrifuged for 1 min at 1000 rpm and stored for 0.5-2h at room temperature in the dark. Radioactivity from ^14C incorporation into fatty acids in the wells is measured as CPM count in a MicroBeta scintillation counter (Perkin Elmer).

[2] = target: human rec ACSS2 (Homo sapiens (Human), UniProt Q9NR19); assay: Biochemical activity ACSS2 assay (AMP-Glo); conditions: human recombinant ACSS2, AMP-Glo, 180 min at 37° C.
Sequence of human rec ACSS2 (Q9NR19 whole entry): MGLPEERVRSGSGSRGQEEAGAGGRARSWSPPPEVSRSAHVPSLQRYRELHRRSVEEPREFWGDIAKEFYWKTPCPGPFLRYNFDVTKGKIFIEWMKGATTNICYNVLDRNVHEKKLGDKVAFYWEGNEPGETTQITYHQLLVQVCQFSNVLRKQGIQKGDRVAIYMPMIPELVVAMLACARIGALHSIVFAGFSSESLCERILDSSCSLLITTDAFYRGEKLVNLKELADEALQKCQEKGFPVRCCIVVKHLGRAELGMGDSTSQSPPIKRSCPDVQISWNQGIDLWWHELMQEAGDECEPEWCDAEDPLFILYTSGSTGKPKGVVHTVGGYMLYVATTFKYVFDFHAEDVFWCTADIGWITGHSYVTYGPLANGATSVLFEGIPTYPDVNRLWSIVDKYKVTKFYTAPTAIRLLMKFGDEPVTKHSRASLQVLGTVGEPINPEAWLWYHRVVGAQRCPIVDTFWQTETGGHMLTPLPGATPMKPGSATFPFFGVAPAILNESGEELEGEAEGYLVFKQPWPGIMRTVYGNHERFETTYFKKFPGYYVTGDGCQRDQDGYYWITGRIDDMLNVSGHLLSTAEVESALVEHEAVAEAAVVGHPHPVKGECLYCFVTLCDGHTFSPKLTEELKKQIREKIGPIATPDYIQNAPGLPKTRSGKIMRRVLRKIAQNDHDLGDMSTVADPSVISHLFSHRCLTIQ
In short: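 1 nM C-term myc-tagged recombinant human ACSS2 with 100 μM ATP, 100 μM Coenzyme A and 500 μM acetate (final concentrations), pH 7.5, 180 min at 37° C, compound from 30 μM over 10 concentrations. Released AMP quantified by AMP-Glo luminescence; zero set with 5 μM reference ACSS2 inhibitor, IC50 derived.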

Sequence of ACSS2 (Q9NR19 whole entry): as above

CCn1c(C(O)(c2ccccc2)c2ccccc2)nc2ncc(-c3nnn[nH]3)cc21 [Compound 60, [1-ethyl-6-(1H-1,2,3,4-tetrazol-5-yl)-1H-imidazo[4,5-b]pyridin-2-yl]diphenylmethanol]
IC50 [1]: 100 to 10000 nM | IC50 [2]: 10 to 100 nM

COc1nc2nc(C(O)(c3ccccc3)c3ccccc3)n(CCO)c2cc1-c1nnn[nH]1 [Compound 34, 2-[2-(hydroxy-diphenylmethyl)-5-methoxy-6-(1H-1,2,3,4-tetrazol-5-yl)-1H-imidazo[4,5-b]pyridin-1-yl]ethan-1-ol]
IC50 [1]: 10 to 100 nM | IC50 [2]: 1 to 10 nM

CCc1c(C(O)(c2ccccc2)c2ccccc2)nc2cc(OC)c(-c3nnn[nH]3)cn12 [Compound 2, [3-Ethyl-7-methoxy-6-(1H-tetrazol-5-yl)-imidazo[1,2-a]pyridin-2-yl]-diphenyl-methanol]
IC50 [1]: 1 to 10 nM | IC50 [2]: 1 to 10 nM

CCn1c(C(O)(c2ccccc2)c2cccs2)nc2nc(OC)c(-c3nnn[nH]3)cc21 (racemic) [Compound 35, [1-ethyl-5-methoxy-6-(1H-1,2,3,4-tetrazol-5-yl)-1H-imidazo[4,5-b]pyridin-2-yl](phenyl)(thiophen-2-yl)methanol]
IC50 [1]: 0.01 to 1 nM | IC50 [2]: 1 to 10 nM

CCn1c(C(O)(c2ccccc2)c2ccccn2)nc2nc(OC)c(-c3nnn[nH]3)cc21 (racemic) [Compound 50, [1-ethyl-5-methoxy-6-(1H-1,2,3,4-tetrazol-5-yl)-1H-imidazo[4,5-b]pyridin-2-yl](phenyl)(pyridin-2-yl)methanol]
IC50 [1]: 0.01 to 1 nM | IC50 [2]: 1 to 10 nM

CCn1c(C(O)(c2ccccc2)c2ncccn2)nc2nc(OC)c(-c3nnn[nH]3)cc21 (racemic) [Compound 37, [1-ethyl-5-methoxy-6-(1H-1,2,3,4-tetrazol-5-yl)-1H-imidazo[4,5-b]pyridin-2-yl](phenyl)(pyrimidin-2-yl)methanol]
IC50 [1]: 1 to 10 nM | IC50 [2]: 1 to 10 nM

CCc1c(C(O)(c2ccccc2)c2ccccc2)nn2cc(Cl)c(-c3nnn[nH]3)cc12 [Compound 21, [6-Chloro-3-ethyl-5-(1H-tetrazol-5-yl)-pyrazolo[1,5-a]pyridin-2-yl]-diphenyl-methanol]
IC50 [1]: 1 to 10 nM | IC50 [2]: 1 to 10 nM

CCn1c(C(O)(c2ccccc2F)c2ccccc2F)nc2nc(OC)c(-c3nnn[nH]3)cc21 [Compound 57, [1-ethyl-5-methoxy-6-(1H-1,2,3,4-tetrazol-5-yl)-1H-imidazo[4,5-b]pyridin-2-yl]bis(2-fluorophenyl)methanol]
IC50 [1]: 0.01 to 1 nM | IC50 [2]: 0.01 to 1 nM

CCc1c(C(O)(c2ccccc2)c2ccccc2)nn2cc(OC)c(-c3nnn[nH]3)cc12 [Compound 22, [3-Ethyl-6-methoxy-5-(1H-tetrazol-5-yl)-pyrazolo[1,5-a]pyridin-2-yl]-diphenyl-methanol]
IC50 [1]: 1 to 10 nM | IC50 [2]: 1 to 10 nM

CCn1c(C(O)(c2ccccc2)c2ccccc2)nc2ccc(C(=O)NC[C@@H](C)O)cc21 [Reference Compound, 3-Ethyl-2-[hydroxy(diphenyl)methyl]-N-[(2R)-2-hydroxypropyl]benzimidazole-5-carboxamide, reference compound]
IC50 [1]: 1 to 10 nM | IC50 [2]: 100 to 10000 nM

CCc1c(C(O)(c2ccccc2)c2ccccn2)nc2cc(OC)c(-c3nnn[nH]3)cn12 (single isomer, unassigned) [Compound 11, [3-Ethyl-7-methoxy-6-(1H-tetrazol-5-yl)-imidazo[1,2-a]pyridin-2-yl]-phenyl-pyridin-2-yl-methanol]
IC50 [1]: 1 to 10 nM | IC50 [2]: 1 to 10 nM

CCc1c(C(O)(c2ccccc2F)c2ccccc2F)nc2cc(Cl)c(-c3nnn[nH]3)cn12 [Compound 5, [7-Chloro-3-ethyl-6-(1H-tetrazol-5-yl)-imidazo[1,2-a]pyridin-2-yl]-bis-(2-fluoro-phenyl)-methanol]
IC50 [1]: 10 to 100 nM | IC50 [2]: 1 to 10 nM

CCn1c(C(O)(c2ccccc2)c2ccccn2)nc2nc(OC)c(-c3nnn[nH]3)cc21 (single isomer, unassigned) [Compound 40, [1-ethyl-5-methoxy-6-(1H-1,2,3,4-tetrazol-5-yl)-1H-imidazo[4,5-b]pyridin-2-yl](phenyl)(pyridin-2-yl)methanol]
IC50 [1]: 1 to 10 nM | IC50 [2]: 1 to 10 nM

CCc1c(C(O)(c2ccccc2)c2ccccc2)nc2cc(Cl)c(-c3nnn[nH]3)cn12 [Compound 9, [7-Chloro-3-ethyl-6-(1H-tetrazol-5-yl)-imidazo[1,2-a]pyridin-2-yl]-diphenyl-methanol]
IC50 [1]: 1 to 10 nM | IC50 [2]: 1 to 10 nM

CCn1c(C(O)(c2ccccc2F)c2ccccc2F)nc2nc(C)c(-c3nnn[nH]3)cc21 [Compound 59, [1-ethyl-5-methyl-6-(1H-1,2,3,4-tetrazol-5-yl)-1H-imidazo[4,5-b]pyridin-2-yl]bis(2-fluorophenyl)methanol]
IC50 [1]: 10 to 100 nM | IC50 [2]: 1 to 10 nM

CCn1c(C(O)(c2ccccc2)c2ccccc2)nc2nc(OC)c(-c3nnn[nH]3)cc21 [Compound 58, [1-ethyl-5-methoxy-6-(1H-1,2,3,4-tetrazol-5-yl)-1H-imidazo[4,5-b]pyridin-2-yl]diphenylmethanol]
IC50 [1]: 0.01 to 1 nM | IC50 [2]: 0.01 to 1 nM

CCn1c(C(O)(c2cccs2)c2cccs2)nc2nc(OC)c(-c3nnn[nH]3)cc21 [Compound 38, [1-ethyl-5-methoxy-6-(1H-1,2,3,4-tetrazol-5-yl)-1H-imidazo[4,5-b]pyridin-2-yl]bis(thiophen-2-yl)methanol]
IC50 [1]: 10 to 100 nM | IC50 [2]: 1 to 10 nM

CCn1c(C(O)(c2ccccc2)c2ccccc2)nc2nc(C)c(-c3nnn[nH]3)cc21 [Compound 62, [1-ethyl-5-methyl-6-(1H-1,2,3,4-tetrazol-5-yl)-1H-imidazo[4,5-b]pyridin-2-yl]diphenylmethanol]
IC50 [1]: 100 to 10000 nM | IC50 [2]: 1 to 10 nM

CCc1c(C(O)(c2ccccc2)c2ccccc2)nc2ccc(-c3nnn[nH]3)cn12 [Compound 4, [3-Ethyl-6-(1 H-tetrazol-5-yl)-imidazo[1,2-a]pyridin-2-yl]-diphenyl-methanol]
IC50 [1]: 10 to 100 nM | IC50 [2]: 10 to 100 nM

CCc1c(C(O)(c2ccccc2F)c2ccccc2F)nn2cc(OC)c(-c3nnn[nH]3)cc12 [Compound 19, [3-Ethyl-6-methoxy-5-(1H-tetrazol-5-yl)-pyrazolo[1,5-a]pyridin-2-yl]-bis-(2-fluoro-phenyl)-methanol]
IC50 [1]: 1 to 10 nM | IC50 [2]: 1 to 10 nM

CCc1c(C(O)(c2ccccc2F)c2ccccc2F)nc2cc(OC)c(-c3nnn[nH]3)cn12 [Compound 6, [3-Ethyl-7-methoxy-6-(1H-tetrazol-5-yl)-imidazo[1,2-a]pyridin-2-yl]-bis-(2-fluoro-phenyl)-methanol]
IC50 [1]: 1 to 10 nM | IC50 [2]: 1 to 10 nM

CCn1c(C(O)(c2ccccc2)c2ccccc2)nc2nc(Cl)c(-c3nnn[nH]3)cc21 [Compound 51, [5-chloro-1-ethyl-6-(1H-1,2,3,4-tetrazol-5-yl)-1H-imidazo[4,5-b]pyridin-2-yl]diphenylmethanol]
IC50 [1]: 10 to 100 nM | IC50 [2]: 1 to 10 nM

CCc1c(C(O)(c2ccccc2)c2ccccc2)nc2cc(F)c(-c3nnn[nH]3)cn12 [Compound 3, [3-Ethyl-7-fluoro-6-(1H-tetrazol-5-yl)-imidazo[1,2-a]pyridin-2-yl]-diphenyl-methanol]
IC50 [1]: 10 to 100 nM | IC50 [2]: 1 to 10 nM
